Laboratory results: patent publication US11337971B2, “Dopamine D3 receptor selective antagonists/partial agonists and uses thereof” (THE UNITED STATES OF AMERICA, AS REPRESENTED BY THE …, priority 2018, dated 2022)
Like-named read-outs stand apart in the source and are kept apart here.

Columns and labels:
5-HT2C = 5-HT2C (Homo sapiens (Human), UniProt P28335); experiment: 5-HT2C [125I]DOI binding; details: Table 3b; read-out: 5-HT2C [125I]DOI Ki ± SEM
human D3R = human D3R (Homo sapiens (Human), UniProt P35462); experiment: Radioligand competition binding, [3H]N-methylspiperone, HEK293 membranes expressing human D3R; details: for Ki: read-out: D3R Ki ± SEM; for D2/D3: ratio of Ki values
How it was run: (§1)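 HEK293 membranes (10 μg protein) incubated 1 h at room temperature in EBSS with 0.2 mM sodium metabisulfite, 0.4 nM [3H]N-methylspiperone and compound (10 μM to 10 pM, triplicate). Nonspecific binding defined with 10 μM butaclamol; GF/B filtration.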

[1] = Phase I metabolic stability in rat liver microsomes; type: in vitro ADME; details: phase I metabolic stability in rat liver microsomes
Excerpt: Rat Liver Microsome Metabolic Stability: Test compounds including 3-F analogues (C4a, C4b, C5a, C5b) and 29, 19 as well as the R-, S-enantiomers of C4a, C5a, 29 and 19 were screened for phase I metabolic stability in rat liver microsomes.

human D2R = human D2R (Homo sapiens (Human), UniProt P14416); experiment: Radioligand competition binding, [3H]N-methylspiperone, HEK293 membranes expressing human D2R; details: read-out: D2R Ki ± SEM
How it was run: as §1

5-HT2A = 5-HT2A (Homo sapiens (Human), UniProt P28223); experiment: 5-HT2A [125I]DOI binding; details: Table 3b; read-out: 5-HT2A [125I]DOI Ki ± SEM
5-HT1A [2] = molecular target: T1, 5-HT1A (Homo sapiens (Human), UniProt P08908); experiment: 5-HT1A [35S]GTPγS binding functional assay; type: biochemical; details: Table 3b; read-out: 5-HT1A [35S]GTPγS binding Agonist EC50 ± SEM
5-HT1A [3] = molecular target: T1, 5-HT1A; experiment: 5-HT1A [3H]-8-OH-DPAT binding; details: Table 3b; read-out: 5-HT1A [3H]-8-OH-DPAT Ki ± SEM
human dopamine D3R = human dopamine D3R (Homo sapiens (Human), UniProt P35462); experiment: D3R mitogenesis assay: stimulation or inhibition of quinpirole-stimulated mitogenesis in CHO cells; type: cell-based
in vivo = experiment: in vivo; set-up: species or system rat; details: rat, in vivo, po, 10 mg/kg; for AUC(0-t) / Cmax: male, Long-Evans
Experimental: Male Long-Evans rats with body weights ˜250 grams (Charles River Laboratories, Raleigh, N.C., USA) were used in this study. […] Food and water were available ad libitum throughout the experiments. All experimental procedures were conducted in accordance with the Guide for the Care and Use of Laboratory Animals and were approved by the Animal Care and Use Committee of the National Institute on Drug Abuse of the U.S. National Institutes of Health.
Experimental (oral gavage) procedures: The animals were gently restrained (grasp the animal by the loose skin of the neck and back) to immobilize the head but not such that the animals vocalize or show other signs of distress. Maintained the animal in an upright (vertical) position and passed the gavage needle (19-gauge) along the side of the mouth. Following the roof of the mouth, advanced the needle into the esophagus and toward the stomach. After the needle was passed to the correct length, the compound was injected. Then, the animals were deeply anesthetized with 100 mg/kg pentobarbital (i.p.), and then blood (˜1 ml) was obtained via cardiac puncture and brain was dissected at different time points (15 min, 30 min, 60 min, 2 h, 4 h, and 8 h, n=3 rats per time point) after oral drug administration.
These solutions were stored at −20° C. Losartan (IS) was dissolved in DMSO at 10 mM concentration that was further diluted in acetonitrile to obtain a final concentration of 500 nM and the solutions were stored at −20° C.
Standard Curve and Quality Control (QC) Sample Preparation: Standard curve plasma samples were prepared using naïve rat plasma, by serial dilution of the stock solution, with 8 standards and 4 QCs, ranging from 10-50,000 pmol/mL.
Standard curve brain samples were prepared using naïve rat brain. The tissue was homogenized in acetonitrile (Dilution Factor; DF=3), crushed, and centrifuged at 10,000 rpm for 10 minutes. The resulting supernatant was used as the standard curve matrix. The standard curve was subsequently prepared by serial dilution of the stock solution, with 7 standards and 4 QCs, ranging from 30-50000 pmol/mL.
Extraction Procedure: Test compounds were extracted from plasma samples by protein precipitation using acetonitrile. Compounds were extracted from brain samples by placing weighed tissue into 2 times w/v of acetonitrile (DF=3), crushed, centrifuged at 10,000 rpm for 10 minutes, and the resultant supernatant was used as the sample solution. Briefly standards, QCs, and samples (25 μL) were mixed with 100 μL acetonitrile containing 0.5 μM Losartan (internal standard; IS) in low retention microcentrifuge tubes. The mixture was vortexed for 1 min and centrifuged at 10,000 rpm for 10 min at 5° C. 50 μL of supernatant was transferred to a 250 μL polypropylene autosampler vials and mixed with 50 μL water, and sealed with a Teflon cap. A volume of 3 μL was injected onto the ultra-performance liquid chromatography (UPLC) instrument for quantitative analysis using a temperature-controlled autosampler operating at 10° C.
Calibration curves for all test compounds were computed using the ratio of the peak area of analyte to the internal standard by using a quadratic regression with 1/× weighting. The parameters of each calibration curve were used to back-calculate concentrations and to obtain values for the QC samples and unknown samples by interpolation.

[4] = Table 1B, [3H]-N-methylspiperone competition, D2LR, 96-well plates

human D2R, sequence (P14416 whole entry): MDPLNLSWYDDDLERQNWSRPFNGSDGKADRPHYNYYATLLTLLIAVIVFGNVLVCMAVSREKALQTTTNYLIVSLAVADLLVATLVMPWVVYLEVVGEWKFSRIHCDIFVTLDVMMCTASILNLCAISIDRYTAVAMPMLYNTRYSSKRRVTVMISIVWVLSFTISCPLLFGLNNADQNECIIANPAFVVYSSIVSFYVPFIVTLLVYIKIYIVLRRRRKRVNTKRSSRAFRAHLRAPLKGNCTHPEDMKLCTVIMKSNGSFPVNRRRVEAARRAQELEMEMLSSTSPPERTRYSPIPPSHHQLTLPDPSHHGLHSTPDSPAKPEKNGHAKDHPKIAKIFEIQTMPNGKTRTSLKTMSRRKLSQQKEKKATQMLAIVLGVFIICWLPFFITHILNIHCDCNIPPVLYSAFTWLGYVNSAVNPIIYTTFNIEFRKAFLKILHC
5-HT2A, sequence (P28223 whole entry, species assumed): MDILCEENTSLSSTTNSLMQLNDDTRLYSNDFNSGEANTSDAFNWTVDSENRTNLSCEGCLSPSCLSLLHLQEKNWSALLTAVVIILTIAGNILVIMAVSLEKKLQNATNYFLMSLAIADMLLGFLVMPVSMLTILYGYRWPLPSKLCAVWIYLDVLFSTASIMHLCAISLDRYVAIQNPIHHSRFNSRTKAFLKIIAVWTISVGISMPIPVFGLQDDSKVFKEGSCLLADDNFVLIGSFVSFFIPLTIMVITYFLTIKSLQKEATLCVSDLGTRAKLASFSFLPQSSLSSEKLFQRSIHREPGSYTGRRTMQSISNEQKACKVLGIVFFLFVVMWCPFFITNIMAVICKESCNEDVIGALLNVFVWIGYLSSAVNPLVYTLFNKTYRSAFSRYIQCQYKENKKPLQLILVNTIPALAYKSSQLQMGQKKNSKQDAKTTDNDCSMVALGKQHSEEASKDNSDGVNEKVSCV
human D3R, sequence (P35462 whole entry): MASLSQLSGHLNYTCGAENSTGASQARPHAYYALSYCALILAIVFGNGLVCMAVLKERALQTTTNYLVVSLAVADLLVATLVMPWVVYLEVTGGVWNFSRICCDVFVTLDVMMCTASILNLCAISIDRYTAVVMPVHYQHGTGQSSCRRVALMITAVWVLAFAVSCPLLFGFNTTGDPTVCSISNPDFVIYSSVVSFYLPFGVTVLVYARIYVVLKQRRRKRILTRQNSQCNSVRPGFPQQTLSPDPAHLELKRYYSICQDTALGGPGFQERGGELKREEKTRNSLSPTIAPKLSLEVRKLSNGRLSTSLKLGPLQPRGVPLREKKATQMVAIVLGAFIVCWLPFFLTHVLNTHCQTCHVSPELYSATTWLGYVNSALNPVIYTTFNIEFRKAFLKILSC
T1 sequence (P08908 whole entry, species assumed): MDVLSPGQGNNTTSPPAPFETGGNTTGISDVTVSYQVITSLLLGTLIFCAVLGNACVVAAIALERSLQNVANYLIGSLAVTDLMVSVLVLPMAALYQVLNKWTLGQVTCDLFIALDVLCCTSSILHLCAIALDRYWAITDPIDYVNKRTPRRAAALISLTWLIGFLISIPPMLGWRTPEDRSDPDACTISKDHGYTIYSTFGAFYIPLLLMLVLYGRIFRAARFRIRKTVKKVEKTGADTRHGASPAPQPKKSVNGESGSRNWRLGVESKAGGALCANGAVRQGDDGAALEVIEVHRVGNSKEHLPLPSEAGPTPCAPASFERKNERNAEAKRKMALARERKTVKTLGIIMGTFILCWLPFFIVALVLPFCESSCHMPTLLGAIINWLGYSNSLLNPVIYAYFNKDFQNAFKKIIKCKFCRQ
5-HT2C, sequence (P28335 33-458, species assumed): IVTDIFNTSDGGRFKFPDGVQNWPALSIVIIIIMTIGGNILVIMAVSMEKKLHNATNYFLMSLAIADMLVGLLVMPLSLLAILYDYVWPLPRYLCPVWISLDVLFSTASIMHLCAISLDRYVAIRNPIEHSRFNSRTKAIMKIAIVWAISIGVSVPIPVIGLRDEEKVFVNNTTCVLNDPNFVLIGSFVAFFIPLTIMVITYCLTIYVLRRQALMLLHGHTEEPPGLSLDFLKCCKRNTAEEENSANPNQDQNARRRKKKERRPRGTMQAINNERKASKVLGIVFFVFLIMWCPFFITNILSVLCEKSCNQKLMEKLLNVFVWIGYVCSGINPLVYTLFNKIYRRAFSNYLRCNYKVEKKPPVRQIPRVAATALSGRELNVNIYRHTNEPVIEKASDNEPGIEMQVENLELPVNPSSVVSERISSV
human dopamine D3R, sequence (P35462 whole entry): as the sequence (P35462 whole entry) above

Ki (human D3R; Table 1B, [3H]-N-methylspiperone competition, 96-well plates) [nM]	D2/D3 (human D3R; Table 1B)	D2/D3 (human D3R; Table 1C)	Ki (human D3R; Table 1C) [nM]	% intact/parent remaining [1] [%]	IC50 (human dopamine D3R; Table 2b, inhibition of quinpirole-stimulated mitogenesis, read-out: Antagonist IC50 ± S.E.M.) [nM]	SMILES	Ki (5-HT2C) [nM]	Ki (human D2R; [4]) [nM]	Ki (human D2R; Table 1C) [nM]	Ki (5-HT2A) [nM]	EC50 (5-HT1A [2]) [nM]	Ki (5-HT1A [3]) [nM]	AUC(0-t) (in vivo) [µM·h]	Cmax (in vivo) [nM]	brain exposure (AUC0-t) (in vivo) [pmol·h/g]	brain penetration (in vivo)	D3R functional efficacy (antagonist / partial agonist) (human dopamine D3R; quinpirole-stimulated mitogenesis in CHO cells)
2.09 ± 0.484	141	134	2.45 ± 0.51	34	450 ± 160	CCc1cccc(N2CCN(CC(F)CCNC(=O)c3cc4ccccc4o3)CC2)c1Cl (racemic) [Compound C5b, N-(4-(4-(2-chloro-3-ethylphenyl)piperazin-1-yl)-3-fluorobutyl)benzofuran-2-carboxamide]	464 ± 36	295 ± 30.1	328 ± 33.5	336 ± 19	351 ± 84	117 ± 14	–	–	–	–	–
–	–	–	–	–	–	CCc1cccc(N2CCN(C[C@H](O)CCNC(=O)c3cc4ccccc4[nH]3)CC2)c1Cl [(R)-19, (R)-N-(4-(4-(2-chloro-3-ethylphenyl)piperazin-1-yl)-3-hydroxybutyl)-1H-indole-2-carboxamide]	50 ± 13	68.1 ± 12.3	75.8 ± 13.7	21.3 ± 6.6	1050 ± 260	248 ± 18	1.99 ± 0.279	306 ± 113	21608 ± 1411	highly brain penetrable	D3R antagonists
–	–	–	–	–	–	CCc1cccc(N2CCN(C[C@@H](O)CCNC(=O)c3cc4ccccc4[nH]3)CC2)c1Cl [(S)-19, (S)-N-(4-(4-(2-chloro-3-ethylphenyl)piperazin-1-yl)-3-hydroxybutyl)-1H-indole-2-carboxamide]	1110 ± 360	200 ± 57.9	219 ± 66.2	940 ± 130	2060 ± 580	131 ± 12	2.68 ± 0.208	601 ± 108	16665 ± 1205	highly brain penetrable	–
